Columns and labels:
[1] = system: PBMC; test: Lymphoproliferative test (tritiated thymidine); format: cell-based, human; settings: 5 days, average of triplicate
Method: To evaluate the antigenic capacity of CBS dendrimers, a lymphoproliferative test was performed. The experiment was prepared in triplicate in a 96-well flat bottomed plate (100,000 cells per well in 200 μl of complete human AB medium with antibiotics, glutamine and 10% AB serum). […] After 5 days of incubation at 37° C. with 5% atmosphere of CO2 100 μl of supernatant was removed, then adding 100 μL of a medium with an isotopic intercalating agent of DNA, tritiated thymidine (prepared with 10% AB medium and Thymidine 1/100). The plate was then filtered using a Harvester passing its content through a filter, which was left to dry overnight (approx. 16 hours). After this period, a sheet of Methylex® containing scintillation medium was heat-melted, and it was read in a gamma camera to evaluate the number of counts (greater the counts, more proliferation). The results, which are shown below in Table 8, are expressed as tritiated thymidine counts per minute (cpm). Each result of each concentration was performed in triplicate, the value which appears in the table being the average of the 3. The PHA and the control were tested 12 times.

[2] = system: PBMC; test: Flow cytometry test (size and complexity; live cells vs apoptosis-necrosis); format: cell-based, human; settings: 72 hours, same concentrations as Trypan Blue test
Method: The evaluation time on this occasion was 72 hours. The toxicity was evaluated on PBMC, produced in the manner described in Example 38. […] The ODN used was PPT, in the following way: • [ODN PPT] in the complex with the CBS: 2.57 (0.88 μM) • [ODN PPT] in the complex with SF: 0.34 μM • [ODN PPT] in the complex with G4: 1 μM […] The cells were either incubated with said complexes, a mixture of equal volume which contained ODN without CBS, a mixture which contained dendrimer alone, or with a mixture which contained only RPMI+complete medium which was used as negative control. The cells and/or the supernatant were then collected to be analysed by flow cytometry, confocal microscopy or cell DNA extraction. The percentages of cells with size and complexity corresponding to cells in apoptosis-necrosis were compared with the live cells. For this, the size (FW) and the complexity (SD) was evaluated by flow cytometry. To do this, a region was drawn around the cells with FW and SD corresponding to cells in apoptosis-necrosis and another around the cells with FW and SD corresponding to live cells. The percentages of cells present in each slide were compared. The graphics produced are shown in FIG. 15, wherein the X-axis represents the size (FW) and the Y-axis the complexity (SD). […] The cloud of dark cells corresponds to cells in apoptosis necrosis. The live cells are represented in grey.

[3] = system: ODN PPT; test: Stability of the dendriplexes in aqueous solution in accordance with time; format: physicochemical; settings: after 24 hours
Method: Different samples of dendriplexes were prepared in aqueous solution formed between the ODN PPT and dendrimers IM8, IM16 and NN at a 2/1 charge ratio according to Example 31 and electrophoresis was performed after different times since the preparation of the samples, specifically 0 hours, 6 hours and 24 hours. During those times, the dendriplexes were maintained in conditions which imitate the physiological conditions: 37° C., in 5% CO2 atmosphere. The results are shown in FIG. 5, wherein the gel of FIG. 5a corresponds to the sample of 0 hours, that of FIG. 5b to the samples after 6 hours and that of FIG. 5c to the samples after 24 hours. In the three cases, a, b and c, the samples appear in the lanes following this order: […]

[4] = system: peripheral blood mononuclear cells (PBMC); test: Mitochondrial activity: MTT on PBMC; format: cell-based, human; settings: for Cell viability after incubation with dendrimers according to MTT: 48 hours, relative to untreated control
Method: The toxicity of dendrimers IM8, IM16, ClNH4, NN, Phe and the commercial controls SF (Superfect) and G4 were tested. Different quantities were taken of each one of them so that the final concentrations with which the cells were incubated were 1 μM, 5 μM, 10 μM, 20 μM and 100 μM.
The blood came from adult donors or the umbilical cord of health newborns. Said blood was diluted ½ with PBS and it was centrifuged in a Ficoll gradient. After said centrifugation, the PBMC halo was recovered and two subsequent washing-centrifuging cycles were carried out. The resulting PBMC were resuspended in complete culture medium with 10% FCS, antibiotics and glutamine.
100 μl of 10% complete medium of foetal calf serum, antibiotics and glutamine were added to a volume of 60 μl of RPMI with the corresponding dendrimer tested. 160 μl were then added to the cells seeded in 340 μl, completing a final volume of 500 μl. The cells were incubated in this way for 48 hours and then the effect of the incubation with the dendrimers was evaluated by its visual examination and by the evaluation of the mitochondrial activity.
A curve of mitochondrial activity was performed of the dendrimer concentration after 48 hours. […] It is a […] test based on the selective capacity of the cells viable for reducing 3-(4,5-dimethylthiazol-2-il)-2,5-diphenyl tetrazolium bromide in insoluble formazan crystals. After 48 hours of incubation of the PBMC with different concentrations of dendrimers in a 96-well plate (100,000/well), the supernatant which contained dendrimer was removed and it was replaced by 200 μl of a culture medium without serum or red phenol (Optimem). To avoid the loss of cells in this step and subsequently of formazan, a modification had been made of the protocol, seeding the PBMC in total human plasma fibronectin (Sigma®) at a concentration of 5-10 μg/ml, so that during the 4-hour incubation they fixed to the bottom of the well. In addition to the 200 μl of Optimem, 20 μl of filtered MTT were added to achieve its sterility (Thiazolyl Blue, Sigma®) in PBS pH 7.4 at a concentration of 5 mg/ml to achieve a final concentration per well of 0.5 mg MTT/ml. After 4 hours of incubation at 37° C. with 5% CO2 atmosphere, the plate was centrifuged at 2000 rpm and the supernatant with the excess MTT that had not reacted was subsequently removed. The formazan crystals were observed under a phase contrast microscope and later dissolved with 200 μl of dimethyl sulfoxide (DMSO). The plate was stirred at 700 rpm in an Eppendorf® stirrer-heater to ensure the correct dissolution of said crystals. The concentration of formazan ([A]) was determined by spectrometry using a plate reader at a wavelength of 570 nm with a reference of 690 nm. The spectrophotometry was calibrated to zero using Optimem without cells. The relative cell viability (%) with respect to the control (untreated cells), based on mitochondrial activity, was calculated based on this formula: [A] test/[A] control×100. Each dendrimer concentration was tested in triplicate, following the guidelines of the ATCC.

[5] = system: PBMC; test: Staining with Trypan Blue of PBMC treated with dendriplexes or dendrimers; settings: 72 hours, (+/−)=2/1, IM8 3.93 μM, IM16 1.99 μM, ClNH4 3.98 μM, Phe 1.96 μM, NN 3.94 μM, SF 0.68 μM, G4 100 μM, PPT 0.88 μM (0.34 μM with SF, 1 μM with G4), n = 100 cells per count

Question: What does the source list for `CN(CCO[Si](C)(C)CCC[Si](C)(CCC[Si](CCC[Si](C)(CCC[Si](C)(C)OCCN(C)CC[N+](C)(C)C)CCC[Si](C)(C)OCCN(C)CC[N+](C)(C)C)(CCC[Si](C)(CCC[Si](C)(C)OCCN(C)CC[N+](C)(C)C)CCC[Si](C)(C)OCCN(C)CC[N+](C)(C)C)CCC[Si](C)(CCC[Si](C)(C)OCCN(C)CC[N+](C)(C)C)CCC[Si](C)(C)OCCN(C)CC[N+](C)(C)C)CCC[Si](C)(C)OCCN(C)CC[N+](C)(C)C)CC[N+](C)(C)C.[I-].[I-].[I-].[I-].[I-].[I-].[I-].[I-]` [NN, 2G-[Si(O(CH2)2N(Me)(CH2)2NMe3^+I^−)]8]?
Answer: Measurement of the scintillation counter (tritiated thymidine counts) ([1]; 2 μM): 145 cpm; Measurement of the scintillation counter (tritiated thymidine counts) ([1]; 5 μM): 160 cpm; Apoptosis-necrosis (%) [2]: 24%; Live cells (%) [2]: 70%; ODN released from dendrimer [3]: ~100%; Cell viability after incubation with dendrimers according to MTT ([4]; 1 μM): 87%; Cell viability after incubation with dendrimers according to MTT ([4]; 5 μM): 68%; Cell viability after incubation with dendrimers according to MTT ([4]; 10 μM): 66%; Cell viability after incubation with dendrimers according to MTT ([4]; 20 μM): 32%; Cell viability after incubation with dendrimers according to MTT ([4]; 100 μM): 9%; mitochondrial viability (comparison among dendrimers) ([4]; increasing concentrations of CBS or SF): greater mitochondrial viability; TB+ (%), cells stained with Trypan Blue [5]: 10.6%
